Key:
[1] = Solubility test: precipitation behavior in aqueous solution kept at room temperature; format: physicochemical; parameters: key: ◯: Not precipitated; Δ: Not remarkably precipitated but fine particles are generated; X: Remarkably precipitated; conditions: dissolved at 50 to 60° C.
Procedure: Thereafter, the resulting solution was kept at room temperature to check a precipitation behavior over time. As Comparative Example, the same experiment was performed using phytospingosine.

[2] = solvent isocetyl alcohol; cited from earlier work
[3] = test system: Candia albicans (C. albicans); test: Antibacterial test (MIC, double dilution in 96-well plate); format: cell-based; conditions: P. ovale medium, cultured 32 to 48 hours
Procedure: (§1) As six representative microbes (fungi, and bacteria) causing skin diseases, each of Malassezia globosa, Malassezia restricta, Candia albicans (C. albicans), Aspergillus niger (A. niger), Enterococcus faecalis, and Brevundimonas vesicularis was seeded in a P. ovale medium, and cultured at 32° C. for 3 days while stirring. The resulting culture broth was diluted with P. ovale at a density of 1.0×10^7 CFU/mL, and the diluted culture broth was used as a test bacterial solution. […] (1) 200 μL of the sample solution prepared in (2) was added to the first row of a 96-well plate. 100 μL of P. ovale was added to the other wells. (2) After the first row of the mixtures were thoroughly mixed, 100 μL of each of the mixtures was taken, added to the second row, and then thoroughly mixed, and 100 μL of each of the mixtures was again taken, and added to the third row. Thereafter, this procedure was repeated to perform a double dilution. (3) After each of the microbes were cultured for 32 to 48 hours, a degree of suspension was used to determine whether the bacteria were growing. […] When it was difficult to determine whether the bacteria were growing due to the opaque mixed solution, the growth of the bacteria was observed under a microscope.

Enterococcus faecalis = test: as above; format: cell-based; conditions: P. ovale medium, cultured 32 to 48 hours
Procedure: as §1

[4] = test system: Aspergillus niger (A. niger); test: as above; format: cell-based; conditions: P. ovale medium, cultured 32 to 48 hours
Procedure: as §1

Malassezia globosa = test: as above; format: cell-based; conditions: P. ovale medium, cultured 32 to 48 hours
Procedure: as §1

Malassezia restricta = test: as above; format: cell-based; conditions: P. ovale medium, cultured 32 to 48 hours
Procedure: as §1

[5] = test system: Brevundimonas vesicularis; test: as above; format: cell-based; conditions: P. ovale medium, cultured 32 to 48 hours
Procedure: as §1

[6] = 0.1% by weight in distilled water, 1 day
[7] = 0.1% by weight in distilled water, 7 days
[8] = 0.1% by weight in distilled water, 30 days
[9] = 1.0% by weight in distilled water, 1 day
[10] = 1.0% by weight in distilled water, 7 days
[11] = 1.0% by weight in distilled water, 30 days

| SMILES | precipitation behavior over time [1, 6] | precipitation behavior over time [1, 7] | precipitation behavior over time [1, 8] | precipitation behavior over time [1, 9] | precipitation behavior over time [1, 10] | precipitation behavior over time [1, 11] | content dissolved in isocetyl alcohol [2] | minimum inhibitory concentration (MIC) [3] | minimum inhibitory concentration (MIC) (Enterococcus faecalis) | minimum inhibitory concentration (MIC) [4] | minimum inhibitory concentration (MIC) (Malassezia globosa) | minimum inhibitory concentration (MIC) (Malassezia restricta) | minimum inhibitory concentration (MIC) [5] |
| --- | --- | --- | --- | --- | --- | --- | --- | --- | --- | --- | --- | --- | --- |
| CCCCCCCCCCCCCC[C@@H](O)[C@@H](O)[C@@H](N)CO [Comparative Example, phytospingosine] | Δ | X | X | X | X | X | approximately 1 % by weight | 0.0312 | 0.062 | 0.5 | 0.001954 | 0.001954 | <0.00097 |
| CCCCCCCCCCCCCC[C@@H](O)[C@@H](O)[C@H](CO)NCC1(O)OC[C@@H](O)[C@@H](O[C@H]2O[C@H](CO)[C@@H](O)[C@H](O)[C@H]2O)[C@@H]1O (stereo partly shown) [Example 1] | ◯ | ◯ | ◯ | ◯ | ◯ | ◯ |  | 0.0019 | 0.0039 | 0.25 | 0.001954 | 0.001954 | <0.00097 |
| CCCCCCCCCCCCCC[C@@H](O)[C@@H](O)[C@H](CO)NCC1(O)OC[C@@H](O)[C@@H](O[C@H]2O[C@H](CO)[C@H](O)[C@H](O)[C@H]2O)[C@@H]1O (stereo partly shown) [Example 2] | ◯ | ◯ | ◯ | ◯ | ◯ | ◯ |  |  |  |  |  |  |  |

From patent publication US10172777B2, “Phytospingosine derivative and composition containing same” (AMOREPACIFIC CORPORATION, priority 2015, dated 2019)
